Activity calls are given as the source filed them. No cut-off for these calls is given here.

In assay [1] the target is T1, Polyunsaturated fatty acid 5-lipoxygenase (Homo sapiens) (UniProt P09917).
T1 sequence (whole entry): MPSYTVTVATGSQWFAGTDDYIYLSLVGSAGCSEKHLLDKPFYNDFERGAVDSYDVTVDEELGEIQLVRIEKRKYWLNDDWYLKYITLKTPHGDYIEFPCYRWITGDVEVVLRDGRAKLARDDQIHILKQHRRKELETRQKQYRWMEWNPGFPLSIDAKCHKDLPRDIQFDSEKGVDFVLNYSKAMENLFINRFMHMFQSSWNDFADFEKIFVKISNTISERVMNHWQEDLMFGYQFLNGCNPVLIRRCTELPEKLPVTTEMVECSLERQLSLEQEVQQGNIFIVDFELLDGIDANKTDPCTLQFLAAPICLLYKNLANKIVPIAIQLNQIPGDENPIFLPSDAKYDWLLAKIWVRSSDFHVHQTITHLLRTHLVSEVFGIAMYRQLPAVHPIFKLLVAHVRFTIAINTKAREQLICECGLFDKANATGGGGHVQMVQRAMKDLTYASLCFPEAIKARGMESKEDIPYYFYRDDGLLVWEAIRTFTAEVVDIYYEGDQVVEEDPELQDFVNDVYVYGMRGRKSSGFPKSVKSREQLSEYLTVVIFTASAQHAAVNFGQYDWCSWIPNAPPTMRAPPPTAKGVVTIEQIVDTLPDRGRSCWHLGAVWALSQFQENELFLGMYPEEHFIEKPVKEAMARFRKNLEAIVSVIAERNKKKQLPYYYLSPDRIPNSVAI
The experiment in a line: Inhibition of human 5-LO transfected in HEK293 cells coexpressing FLAP assessed as reduction in leukotriene formation at 1 uM using arachidonic acid as substrate preincubated for 5 mins followed by calcium ionophore A23187/arachidonic acid addition and measured after 15 mins by RP-HPLC analysis. It counts as cell-based.

Assay [2] has as its system RCC4/VHL. The experiment in a line: Induction of DNA damage in human RCC4/VHL cells assessed as induction of p53 expression at 1.25 uM incubated for 24 hrs by Western blot analysis. It counts as functional, cell-based.
For assay [3], the system named is RCC4. The experiment in a line: Inhibition of autophagic flux in VHL-deficient human RCC4 cells assessed as increase in p62 expression at 1.25 uM incubated for 24 hrs by Western blot analysis. It counts as functional, cell-based.
Assay [4] deals with RCC4/VHL. Nature of the assay: Induction of autophagy in human RCC4/VHL cells assessed as increase in conversion of LC3B1 to LC3B2 expression at 1.25 uM incubated for 24 hrs by Western blot analysis. It counts as functional, cell-based.
The subject of assay [5] is RCC4/VHL. The experiment in a line: Inhibition of autophagic flux in human RCC4/VHL cells assessed as increase in p62 expression at 1.25 uM incubated for 24 hrs by Western blot analysis. It counts as functional, cell-based.
For assay [6], the system named is 786-0. The experiment in a line: Cytotoxicity against VHL-positive human 786-0 cells assessed as reduction in cell viability incubated for 4 days by XTT assay. It counts as functional, cell-based. The conditions noted are these: 786-0, 96 h.
Assay [7] is described as follows: Cytotoxicity against VHL-deficient human RCC10 cells assessed as reduction in cell viability incubated for 4 days by XTT assay. It counts as functional, cell-based. The note with it: 96 h.
In assay [8] the test system is RCC4. The experiment in a line: Induction of cellular phenotype changes in VHL-deficient human RCC4 cells at 1.25 uM incubated for 24 hrs by inverted microscopic analysis. It counts as functional, cell-based.
The subject of assay [9] is RCC4. Nature of the assay: Induction of autophagy in VHL-deficient human RCC4 cells assessed as increase in conversion of LC3B1 to LC3B2 expression at 1.25 uM incubated for 24 hrs by Western blot analysis. It counts as functional, cell-based.
In assay [10] the test system is 786-0. The experiment in a line: Cytotoxicity against VHL-deficient human 786-0 cells assessed as reduction in cell viability incubated for 4 days by XTT assay. The note with it: 786-0, 96 h. It counts as functional, cell-based.
In assay [11] the test system is RCC4. Nature of the assay: Induction of apoptosis in VHL-deficient human RCC4 cells assessed as cleavage of pro-caspase 3 at 1.25 uM incubated for 24 hrs by Western blot analysis. It counts as functional, cell-based.
A short description of assay [12]: Selectivity ratio of IC50 for VHL-positive human RCC4/VHL cells to IC50 for VHL-deficient human RCC4 cells. It counts as functional.
In assay [13] the test system is RCC4/VHL. The experiment in a line: Induction of cellular phenotype changes in human RCC4/VHL cells at 1.25 uM incubated for 24 hrs by inverted microscopic analysis. It counts as functional, cell-based.
Assay [14] in a line: Cytotoxicity against VHL-positive human RCC10 cells assessed as reduction in cell viability incubated for 4 days by XTT assay. It counts as functional, cell-based. The conditions noted are these: 96 h.
In assay [15] the test system is RCC4/VHL. The experiment in a line: Cytotoxicity against VHL-positive human RCC4/VHL cells assessed as reduction in cell viability incubated for 4 days by XTT assay. It counts as functional, cell-based. The note with it: for IC50: 96 h.
For assay [16], the system named is RCC4. The experiment in a line: Cytotoxicity against VHL-deficient human RCC4 cells assessed as reduction in cell viability incubated for 4 days by XTT assay. The note with it: for IC50: RCC4, 96 h. It counts as functional, cell-based.
Assay [17] deals with RCC4/VHL. Nature of the assay: Induction of apoptosis in human RCC4/VHL cells assessed as cleavage of pro-caspase 3 at 1.25 uM incubated for 24 hrs by Western blot analysis. It counts as functional, cell-based.
Assay [18] concerns RCC4. The experiment in a line: Induction of DNA damage in VHL-deficient human RCC4 cells assessed as induction of p53 expression at 1.25 uM incubated for 24 hrs by Western blot analysis. It counts as functional, cell-based.
Assay [19] is described as follows: Antioxidant activity assessed as DPPH radical scavenging activity incubated for 30 mins under dark condition. It counts as functional.
Assay [20] deals with T1, Polyunsaturated fatty acid 5-lipoxygenase (Homo sapiens). The experiment in a line: Inhibition of 5-LO in human PMNL cells assessed as reduction in leukotriene formation at 1 uM preincubated for 5 mins followed by thapsigargin stimulation measured after 15 mins by RP-HPLC analysis relative to control. It counts as cell-based.
Assay [21] shares this target. Nature of the assay: Inhibition of human 5-LO transfected in HEK293 cells coexpressing FLAP assessed as leukotriene formation at 1 uM using arachidonic acid as substrate preincubated for 5 mins followed by calcium ionophore A23187/arachidonic acid addition and measured after 15 mins by RP-HPLC analysis relative to control. It counts as cell-based. On the set-up: scale not given: the % may be the effect or the level left.

In assay [22] the test system is RCC4. Nature of the assay: Inhibition of autophagic flux in VHL-deficient human RCC4 cells assessed as increase in p62 expression at 2.5 to 10 uM incubated for 24 hrs by Western blot analysis. It counts as functional, cell-based.
For assay [23], the system named is RCC4. The experiment in a line: Induction of cellular phenotype changes in VHL-deficient human RCC4 cells at 2.5 to 10 uM incubated for 24 hrs by inverted microscopic analysis. It counts as functional, cell-based.
Assay [24] relates to RCC4. Nature of the assay: Induction of autophagy in VHL-deficient human RCC4 cells assessed as increase in LC3B1 expression incubated for 24 hrs by Western blot analysis. It counts as functional, cell-based.
Assay [25] relates to RCC4/VHL. The experiment in a line: Induction of autophagy in human RCC4/VHL cells assessed as increase in conversion of LC3B1 to LC3B2 expression at 2.5 to 10 uM incubated for 24 hrs by Western blot analysis. It counts as functional, cell-based.
The target of assay [26] is T2, Polyunsaturated fatty acid 5-lipoxygenase (Homo sapiens, UniProt P09917).
T2 sequence (P09917 whole entry): T1 sequence (whole entry)
The experiment in a line: (§1) Inhibition of 5-LO in human PMNL cells assessed as reduction in leukotriene formation preincubated for 5 mins followed by thapsigargin stimulation measured after 15 mins by RP-HPLC analysis. It counts as cell-based.

In assay [27] the target is T1, Polyunsaturated fatty acid 5-lipoxygenase (Homo sapiens). Described as §1. It counts as cell-based.
Assay [28] relates to RCC4. The experiment in a line: Induction of autophagy in VHL-deficient human RCC4 cells assessed as increase in LC3B2 expression incubated for 24 hrs by Western blot analysis. It counts as functional, cell-based.
The test system of assay [29] is RCC4/VHL. The experiment in a line: Induction of autophagy in human RCC4/VHL cells assessed as increase in LC3B1 expression incubated for 24 hrs by Western blot analysis. It counts as functional, cell-based.
Assay [30] concerns RCC4. Nature of the assay: Induction of DNA damage in VHL-deficient human RCC4 cells assessed as induction of p53 expression at 2.5 to 10 uM incubated for 24 hrs by Western blot analysis. It counts as functional, cell-based.
For assay [31], the system named is RCC4. Nature of the assay: Induction of apoptosis in VHL-deficient human RCC4 cells assessed as cleavage of pro-caspase 3 after 24 hrs by Western blot analysis. It counts as functional, cell-based.
The test system of assay [32] is RCC4/VHL. Nature of the assay: Induction of DNA damage in human RCC4/VHL cells assessed as induction of p53 expression at 2.5 to 10 uM incubated for 24 hrs by Western blot analysis. It counts as functional, cell-based.
Assay [33] relates to RCC4/VHL. The experiment in a line: Inhibition of autophagic flux in human RCC4/VHL cells assessed as increase in p62 expression at 2.5 to 10 uM incubated for 24 hrs by Western blot analysis. It counts as functional, cell-based.
For assay [34], the system named is RCC4/VHL. The experiment in a line: Induction of cellular phenotype changes in human RCC4/VHL cells at 2.5 to 10 uM incubated for 24 hrs by inverted microscopic analysis. It counts as functional, cell-based.
For assay [35], the system named is RCC4/VHL. Nature of the assay: Induction of autophagy in human RCC4/VHL cells assessed as increase in LC3B2 expression incubated for 24 hrs by Western blot analysis. It counts as functional, cell-based.
In assay [36] the target is T1, Polyunsaturated fatty acid 5-lipoxygenase (Homo sapiens). Nature of the assay: Potency index, ratio of CAPE IC50 to compound IC50 for inhibition of 5-LO in human PMNL cells assessed as reduction in leukotriene formation preincubated for 5 mins followed by thapsigargin stimulation measured after 15 mins by RP-HPLC analysis. It counts as cell-based.
Assay [37] has the same target. The experiment in a line: Potency index, ratio of Zileuton IC50 to compound IC50 for inhibition of 5-LO in human PMNL cells assessed as reduction in leukotriene formation preincubated for 5 mins followed by thapsigargin stimulation measured after 15 mins by RP-HPLC analysis. It counts as cell-based.
Assay [38] has as its system RCC4. The experiment in a line: Induction of autophagy in VHL-deficient human RCC4 cells assessed as increase in conversion of LC3B1 to LC3B2 expression at 2.5 to 10 uM incubated for 24 hrs by Western blot analysis. It counts as functional, cell-based.

Turning to `O=C(/C=C/c1cc(O)ccc1O)OCCCc1ccccc1`, in assay [1], the inhibition result was “Active”.

On to `Cc1cccc(Nc2nc(-c3ccncc3)cs2)c1`, for which the result with RCC4/VHL [2], with RCC4 [8], with RCC4 [11], with RCC4/VHL [13], in the assay on RCC4/VHL [17] and with RCC4 [18] was inactive. In addition, the inhibition entry with RCC4 [3] and in the assay on RCC4/VHL [5] was “Active” each time. Besides, the result in the assay with RCC4/VHL [4] and with RCC4 [9] was Active. The IC50 with 786-0 [6] turned out to be 6.9 µM; in assay [7], 8.6 µM; with 786-0 [10] it was 5.7 µM; in assay [14], 12.6 µM; in the assay on RCC4/VHL [15] it was 5.3 µM; in the assay with RCC4 [16] it was 1.2 µM. The “Ratio IC50” value in [12] worked out at 4.4.

For `O=C(/C=C/c1cccc(O)c1O)OCCCc1ccccc1`, the inhibition result in assay [1] is “Active”.

As for `CC(c1cc2ccccc2s1)N(O)C(N)=O` (stereo not drawn) [ZILEUTON], the inhibition entry in assay [1] and in [20] was “Active” each time. Moreover, the IC50 in assay [19] is above 100 µM.

Take `O=C1O[C@H]([C@@H](O)CO)C(O)=C1O` [ASCORBIC ACID]: the IC50 in [19] amounted to 13.9 µM.

With `O=C(/C=C/c1ccc(O)cc1O)OCCc1ccccc1`, the Activity in assay [21] was 100%.

For `O=C(/C=C/c1cc(O)ccc1O)OCCc1ccccc1`, the inhibition entry with RCC4 [22] and in the assay with RCC4/VHL [33] was “Active” in each case. Moreover, the outcome in the assay on RCC4 [23], in the assay on RCC4 [30], with RCC4/VHL [32] and in the assay on RCC4/VHL [34] was inactive. Also, the Activity result in the assay with RCC4 [24] is “Dose-dependent effect”; with RCC4 [28] it was “Dose-dependent effect”; with RCC4/VHL [29], “Dose-dependent effect”; in assay [21], 25%; with RCC4 [31], “Dose-dependent effect”; with RCC4/VHL [15], “Dose-dependent effect”. The Activity entry in the assay with RCC4/VHL [35] and with RCC4 [16] was “Dose-dependent effect” in each case. The IC50 is above 100 µM in the assay with 786-0 [6]; 16.4 µM in assay [19]; 0.33 µM in [26]; 5.04 µM in assay [7]; 34.8 µM in the assay on 786-0 [10]; 0.96 µM in [14]. For the same molecule, the results for the IC50 with RCC4/VHL [15] and in the assay on RCC4 [16] were 99.6 µM and 8 µM, respectively. The result in the assay with RCC4/VHL [25] and with RCC4 [38] was Active. In addition, the values for the inhibition result in assay [27] and in assay [20] were “Dose-dependent effect” and above 50%, respectively. For the same molecule, the figures for the “Ratio IC50” value in [12], in [36] and in assay [37] were 12, 3 and 7, respectively.

Values taken from ChEMBL document CHEMBL4414547, “Discovery of a novel 2,5-dihydroxycinnamic acid-based 5-lipoxygenase inhibitor that induces apoptosis and may impair autophagic flux in RCC4 renal cancer cells” (Eur J Med Chem, 2019).
